Tests used:
[1] = tested on: HCT-15/ADM2; assay: XTT in vitro growth inhibition assay, HCT-15/ADM2; format: cell-based, human; conditions: IC50 of HCT-15/ADM2 divided by IC50 of parental HCT-15
[2] = tested on: HCT-15; assay: XTT in vitro growth inhibition assay, parental HCT-15; format: cell-based, human; conditions: IC50 of subline divided by IC50 of parental cells; HCT-15 (parental, reference)
[3] = tested on: HCT-15/ADM2-2; assay: XTT in vitro growth inhibition assay, HCT-15/ADM2-2; format: cell-based, human; conditions: IC50 of HCT-15/ADM2-2 divided by IC50 of parental HCT-15
[4] = tested on: HCT-15/ADM1; assay: XTT in vitro growth inhibition assay, HCT-15/ADM1; format: cell-based, human; conditions: IC50 of HCT-15/ADM1 divided by IC50 of parental HCT-15
[5] = in contrast to cyclosporin A; cited from earlier work
[6] = tested on: leukemia; conditions: randomized trials, combination chemotherapy against leukemia; cited from earlier work
[7] = tested on: P-glycoprotein; conditions: cited from earlier work
[8] = tested on: P-glycoprotein-ATPase; conditions: cited from earlier work

Row | Compound | Relative resistance [1] | Relative resistance [2] | Relative resistance [3] | Relative resistance [4] | Immunosuppressive activity [5] | Complete remission rates or survival [6] | Effect on binding of photoactive analogues of cyclosporin to P-glycoprotein [7] | Inhibition of substrate-stimulated P-glycoprotein-ATPase activity [8]
1 | COc1cccc2c1C(=O)c1c(O)c3c(c(O)c1C2=O)C[C@@](O)(C(=O)CO)C[C@@H]3O[C@H]1C[C@H](N)[C@H](O)[C@H](C)O1 [Adriamycin] | 4.40 | 1 | 7.77 | 2.23 |  |  |  | 
2 | COc1cccc2c1C(=O)c1c(O)c3c(c(O)c1C2=O)C[C@@](O)(C(=O)CO)C[C@@H]3O[C@H]1C[C@H](N)[C@@H](O)[C@H](C)O1 [Epirubicin] | 3.34 | 1 | 4.33 | 1.58 |  |  |  | 
3 | COc1cc([C@@H]2c3cc4c(cc3[C@@H](O[C@@H]3O[C@@H]5CO[C@@H](C)O[C@H]5[C@H](O)[C@H]3O)[C@H]3COC(=O)[C@H]23)OCO4)cc(OC)c1O [Etoposide] | 2.55 | 1 | 3.16 | 2.27 |  |  |  | 
4 | CO[C@@]12[C@H](COC(N)=O)C3=C(C(=O)C(C)=C(N)C3=O)N1C[C@@H]1N[C@@H]12 [Mitomycin C] | 1.77 | 1 | 0.26 | 0.80 |  |  |  | 
5 | O=C1c2c(O)ccc(O)c2C(=O)c2c(NCCNCCO)ccc(NCCNCCO)c21 [Mitoxantrone] | 5.40 | 1 | 3.12 | 1.42 |  |  |  | 
6 | CC(=O)O[C@H]1C(=O)[C@@]2(C)[C@H]([C@H](OC(=O)c3ccccc3)[C@]3(O)C[C@H](OC(=O)[C@H](O)[C@@H](NC(=O)c4ccccc4)c4ccccc4)C(C)=C1C3(C)C)[C@]1(OC(C)=O)CO[C@@H]1C[C@@H]2O [Taxol, paclitaxel] | 2.63 | 1 | 4.81 | 2.81 |  |  |  | 
7 | CC[C@]1(O)C[C@H]2CN(CCc3c([nH]c4ccccc34)[C@@](C(=O)OC)(c3cc4c(cc3OC)N(C=O)[C@H]3[C@@](O)(C(=O)OC)[C@H](OC(C)=O)[C@]5(CC)C=CCN6CC[C@]43[C@@H]65)C2)C1 [Vincristine] | 2.19 | 1 | 2.96 | 2.03 |  |  |  | 
8 | [3′‐keto‐Bmt^1]‐[Val^2]‐cyclosporin [Valspodar] |  |  |  |  | non-immunosuppressive | failed to improve | inhibited | more potent than cyclosporin A

Source: publication PMC5926616 (Japanese Journal of Cancer Research : Gann, 2001)
